Laboratory results as given in patent US7160508B2, “Personal care products having elastomeric portions” (The Gillette Company, priority 2001, dated 2007).
≈ marks a conversion by molar mass, not a printed value.

Assay: Minimum inhibitory concentration (agar plate dilution, molds)
Assay type: cell-based
Details: 168 h; lowest concentration in sterile water and agar with no growth visible to the naked eye after 7 days at 27±2° C.
Description: Preferred antimicrobial agents will inhibit mold growth at relatively low concentrations of antimicrobial agent, i.e., preferred antimicrobial agents will have a low “minimum inhibitory concentration” (MIC), measured as parts per million (ppm) concentration in sterile water and agar using the test procedure discussed below. If the MIC is high, a high concentration of antimicrobial agent will generally be necessary in order to obtain sufficient antifungal activity, resulting in increased cost and a potential adverse affect on the properties of the elastomeric material. For example, high concentrations of antifungal agent may tend to increase the hardness of the thermoplastic elastomer. Preferred antimicrobial agents have an MIC of less than about 100 ppm.
Minimum inhibitory concentration is measured by diluting the antimicrobial agent in sterile water to obtain a plurality of solutions having a range of concentrations. 1 ml of each of the solutions is added to 9 ml portions of molten agar to give a final volume of 10 ml, and immediately poured to form plates. […] The plates are incubated at 27±2° C. and analyzed for growth at 3, 5 and 7 days. […]

CCCCCCCCn1sc(Cl)c(Cl)c1=O [4,5-dichloro-2-n-octyl-4-isothiazolin-3-one] showed an MIC of ~50 µg/mL (≈ 177 µM).
